# In ChEMBL document CHEMBL1147344, “New Chlorophyll-A-Related Compounds Isolated as Antioxidants from Marine Bivalves” (J Nat Prod, 1993):
# The source made the active and inactive calls. The rule behind the calls is not given here.
# Assay: Antioxidant activity assessed as inhibition of lipid peroxidation at 3 ug incubated at 40 degC in dark by paper disk method
# Format: functional
row,Compound,Activity
1,C=Cc1c(C)c2cc3nc4c(c5[nH]c(cc6nc(cc1[nH]2)C(C)=C6CC)c(C)c5C(=O)OC)C(=O)C(=O)CC[C@H]4[C@@H]3C,Active
2,C=Cc1c(C)c2cc3nc(c4c5[nH]c(cc6nc(cc1[nH]2)C(C)=C6CC)c(C)c5C(=O)OC4=O)[C@@H](CCC(=O)O)[C@@H]3C,Active
3,C=Cc1c(C)c2cc3nc4c5c6[nH]c(cc7nc(cc1[nH]2)C(C)=C7CC)c(C)c6C(=O)[C@@]5(O)C(=O)CC[C@H]4[C@@H]3C,Active
4,C=Cc1c(C)c2cc3nc4c5c6[nH]c(cc7nc(cc1[nH]2)C(C)=C7CC)c(C)c6C(=O)O[C@@]5(O)C(=O)CC[C@H]4[C@@H]3C,Active
5,C=Cc1c(C)c2cc3nc(c4c5[nH]c(cc6nc(cc1[nH]2)C(C)=C6CC)c(C)c5C(=O)OC4=O)[C@@H](CCC(=O)OC)[C@@H]3C,Active
6,C=Cc1c(C)c2cc3nc(c4c5[nH]c(cc6nc(cc1[nH]2)C(C)=C6CC)c(C)c5C(=O)C4=O)[C@@H](CCC(=O)O)[C@@H]3C,Active
7,C=Cc1c(C)c2cc3nc(c4c5[nH]c(cc6nc(cc1[nH]2)C(C)=C6CC)c(C)c5C(=O)C4)[C@@H](CCC(=O)O)[C@@H]3C,Active

# Assay: Antioxidant activity assessed as inhibition of lipid peroxidation at 20 ug incubated at 40 degC in dark by paper disk method
# Format: functional
row,Compound,Activity
1,Cc1c(C)c2c(c(C)c1O)CC[C@@](C)(CCC[C@H](C)CCC[C@H](C)CCCC(C)C)O2,Active

# Assay: Antioxidant activity assessed as inhibition of lipid peroxidation in dark at 40 degC by paper disk method
# Format: functional
row,Compound,Activity
1,C=Cc1c(C)c2cc3nc4c5c6[nH]c(cc7nc(cc1[nH]2)C(C)=C7CC)c(C)c6C(=O)[C@]5(O)C(=O)CC[C@H]4[C@@H]3C,Active
